Measurements taken from patent publication US12171884B2, “Mesoporous silica nanoparticles with lipid bilayer coating for cargo delivery” (priority 2016, dated 2024).
“Also recorded” adds a separate entry of the source. Counter-ions that a name gives are not always drawn. One block for each compound: values may come before it.

Tests used:
PDAC = PDAC patients; cited from earlier work
[1] = Maximum tolerated dose (NCI protocol); conditions: male, BALB/c, mouse, in vivo; Example 1; healthy mice, IV, validated in six mice over 15 days
Description: . Two healthy male BALB/c mice were IV injected with a 50 mg/kg (C1 dose) equivalent of free or encapsulated irinotecan. This was followed by a dose escalation factor of 1.8 to obtain the Cn dose, which results in animal death within 24 h after the last administration. The second round of dose-seeking began with the Cn-1 dose and utilized a 1.15 escalation factor (n=2) to find the MTD, which is defined as the absence of mortality or morbidity. The MTD was validated by injecting six mice, which were followed for 15 days to determine the absence of morbidity, mortality, or >15% weight loss.
. Two healthy male BALB/c mice were IV injected with 50 mg/kg (C1 dose) free or encapsulated drug. We then used a dose escalation factor of 1.8 to determine the Cn dose where both animals (n=2) died within 24 hours. After treatment with free or encapsulated irinotecan. The second round of dose-seeking began with Cn-1 dose, and utilized a 1.15 escalation factor (n=2) to find the MTD, where there was no mortality or serious morbidity. The MTD was further validated by injecting […], and following them for 15 days to ascertain that there was no morbidity, mortality or […]. […].

[2] = Bone marrow toxicity and differential white cell count; format: in vivo, mice; conditions: 40 mg/kg IV x3, 2 days apart; listed as free drug, hydrochloride trihydrate
Description: Bone marrow toxicity was studied in a separate experiment, in which animals received three injections of a 40 mg/kg irinotecan dose equivalent, as described above. After sacrifice, sternal bone marrow was collected to evaluate myelotoxicity by H&E staining (FIG. 4D) (Iusuf et al. (2014) Mol. Cancer Ther. 13: 492-503).

PANC-1 cells = assay: MTS cytotoxicity assay; format: cell-based; conditions: PANC-1, incremental irinotecan concentrations, 24-72 hours
BxPC-3 cells = assay: MTS cytotoxicity assay; format: cell-based; conditions: BxPC3, incremental irinotecan concentrations, 24-72 hours
[3] = human, in vivo; cited from earlier work
[4] = test system: KPC-derived orthotopic tumors; assay: Efficacy assessment in KPC-derived orthotopic model; conditions: 40 mg/kg IV every 4 days
[5] = Liver and intestinal toxicity (H&E, cleaved caspase-3 IHC); conditions: animals of efficacy study, 40 mg/kg every 4 days
[6] = Acute histological analysis after single IV dose (Example 2); conditions: 60 mg/kg single IV, 24 hours; for kidney histology: hydrochloride trihydrate
[7] = test system: KPC-derived orthotopic tumor; conditions: mouse, in vivo
Text: This stringent PDAC tumor model mimics human PDAC for oncogene expression, growth characteristics, metastasis, histological features and development of a dysplastic stroma. […] Imaging intensity was quantified by IVIS Lumina Living Image software.

[8] = test system: patient-derived PDAC xenograft XWR #187; conditions: mouse, in vivo, 50 mg/kg

Compound: Nc1ccn([C@@H]2O[C@H](CO)[C@@H](O)C2(F)F)c(=O)n1 [GEM, gemcitabine]
response rate (PDAC): 9.4%
survival (PDAC): 6.8 months

Compound: CCc1c2c(nc3ccc(OC(=O)N4CCC(N5CCCCC5)CC4)cc13)-c1cc3c(c(=O)n1C2)COC(=O)[C@]3(O)CC [free irinotecan, Irinotecan hydrochloride trihydrate]
MTD at 15 days [1]: 60 mg/kg
peripheral blood neutrophil count [2]: significant decrease of the absolute neutrophil count; also recorded: peripheral blood neutropenia
cell killing (MTS) (PANC-1 cells): more effective in killing over 24 hours
cell killing (MTS) (BxPC-3 cells): more effective in killing over 24 hours
G.I.T. adverse effects (vomiting, diarrhea, nausea, anorexia) [3]: ~50 % of patients
incidence of neutropenia [3]: ~60%
effect on metastasis (ex vivo bioluminescence) [4]: failed to affect metastasis
liver histology (H&E) [5]: severe and extensive hepatocyte necrosis
bone marrow toxicity (H&E histology) [6]: Severe bone marrow damage and apoptosis
kidney histology ([6]; listed as Free irinotecan): nephrotoxicity
kidney histology ([6]; listed as free IRIN): swelling and edema of Bowman's space

enhancement of silicasome uptake at orthotopic tumor site by co-administration [7]: 3-4 fold
increase of NIR intensity at the tumor site [8]: 50%
Compound: N=C(N)NCCC[C@@H]1NC(=O)[C@@H](N)CSSC[C@@H](C(=O)O)NC(=O)[C@H](CC(=O)O)NC(=O)[C@@H]2CCCN2C(=O)CNC(=O)[C@H](CCCCN)NC(=O)[C@H](CC(=O)O)NC(=O)CNC1=O [iRGD]
intratumoral particle abundance and traveling distance from blood vessels [7]: most effective strategy to enhance silicasome uptake

Compound: FOLFIRINOX
response rate (PDAC): 31.6%
survival (PDAC): ~11 months
